Results from US8614236B2 (University of Washington, priority 2006, dated 2013).
Entries after “also recorded” stand apart in the source; their conditions may differ.

Assays:
Beagle dogs [1] = test: Dog study: arterial blood gases, ventilation and acid-base status in normoxia and hypoxia; type: in vivo; settings: iv bolus + continuous infusion
Source text: The dogs were kept under highly standardized conditions and received a standardized diet five days before the experiments. […] To permit spontaneous breathing through a low resistance circuit, a face mask was attached, which enclosed the dog's snout in a leak proof fashion. This custom made mask is equipped with a 2.5 cm ID connector to connect it to a ventilator set to CPAP mode (3 4 cmH20) (Servo900C; Siemens-Elema, Erlangen/Germany).
(§1) Six dogs were studied in five different protocols in randomized order:
5) Ethoxzolamide (Sigma-Aldrich, Steinheim/Germany) intravenously: Bolus ethoxzolamide (1 mg/kg), followed by a continuous infusion of 1 mg·kg^−1·h^−1.
The hemodynamic measurements (arterial blood pressure, heart rate, central venous pressure, pulmonary artery pressure, pulmonary capillary wedge pressure), minute ventilation, renal function data, time points for blood samples for blood gases, actual bicarbonate, base excess, plasma electrolytes and hormones, measurements of plasma and urinary values were according to former studies.
(§2) Values are given as means±SEM (n=6). For intra-group comparisons a general linear model of analysis of variance (GLM-ANOVA) for repeated measures was applied (NCSS97/PASS 2000, Saugus/MA, USA). Post-hoc testing of means was performed with Student's t-test. Level of significance for error of first order was adjusted according to Holm's procedure. Statistical significance was assumed at p<0.05.

Beagle dogs [2] = test: Dog study: pulmonary and systemic hemodynamics, hypoxic pulmonary vasoconstriction; type: in vivo; settings: for MPAP and PVR during hypoxia (words): iv bolus + continuous infusion (AZ, benzolamide 2 mg/kg + 2 mg/kg/h; ethoxzolamide 1 mg/kg + 1 mg/kg/h)
Method: A total of 30 experiments were performed on six female Beagle dogs (body wt 14.3±0.3 kg). The dogs were kept under highly standardized conditions and received a standardized diet five days before the experiments. The preparation and catheterization of the conscious dog were performed according to former experiments as in Höhne C., et al., J Appl Physiol (2004), which is hereby incorporated by reference in its entirety. To permit spontaneous breathing through a low resistance circuit, a face mask was attached, which enclosed the dog's snout in a leak proof fashion. This custom made mask is equipped with a 2.5 cm ID connector to connect it to a ventilator set to CPAP mode (3 4 cmH20) (Servo900C; Siemens-Elema, Erlangen/Germany).
as §1
4) Benzolamide intravenously: Bolus (2 mg/kg), followed by a continuous infusion of 2 mg·kg^−1·h^−1, a dosage which inhibits only renal and vascular endothelial extracellular CA, without affecting red cell CA as in Travis D. M., et al. J Pharmacol Exp Ther (1964), which is hereby incorporated by reference in its entirety. 5) Ethoxzolamide (Sigma-Aldrich, Steinheim/Germany) intravenously: Bolus ethoxzolamide (1 mg/kg), followed by a continuous infusion of 1 mg·kg^−1·h^−1.
In control experiments, the dogs breathed room air (21% O2, 79% N2; normoxia) for one hour, followed by breathing a gas mixture containing 10% O2 and 90% N2 for two hours (hypoxia). The time course was the same for the CA inhibitor experiments, but F1O2 was reduced to 0.09 during the hypoxia period to match the arterial and alveolar PO2 of the control dogs, which otherwise would have been higher on 10% O2 as a result of the known ventilatory stimulant effect of all CA inhibitors. See Höhne C., et al., J Appl Physiol 97:515-521 (2004), which is hereby incorporated by reference in its entirety. The hemodynamic measurements (arterial blood pressure, heart rate, central venous pressure, pulmonary artery pressure, pulmonary capillary wedge pressure), minute ventilation, renal function data, time points for blood samples for blood gases, actual bicarbonate, base excess, plasma electrolytes and hormones, measurements of plasma and urinary values were according to former studies. See Höhne C., et al., J Appl Physiol 90:1842-1848 (2001), which is hereby incorporated by reference in its entirety.
as §2

[3] = iv bolus + continuous infusion, hypoxia 2nd h
[4] = iv bolus + continuous infusion, hypoxia 3rd h
[5] = iv bolus + continuous infusion, normoxia 1st h

Compound: NS(=O)(=O)c1nnc(NS(=O)(=O)c2ccccc2)s1 [BZ, benzolamide]
- BEa, arterial base excess (Beagle dogs [1]; hypoxia 2nd h): -4.4 ± 0.4 mM
- HCO3a, arterial actual bicarbonate concentration (Beagle dogs [1]; hypoxia 2nd h): 18.4 ± 0.3 mM
- PaCO2, arterial carbon dioxide tension (Beagle dogs [1]; hypoxia 2nd h): 30 ± 1 Torr
- PaO2, arterial oxygen tension (Beagle dogs [1]; hypoxia 2nd h): 37 ± 1 Torr
- VE, minute ventilation (Beagle dogs [1]; hypoxia 2nd h): 4.4 ± 0.5 L/min
- pHa, arterial pH (Beagle dogs [1]; hypoxia 2nd h): 7.41 ± 0.01
- BEa, arterial base excess (Beagle dogs [1]; hypoxia 3rd h): -4.9 ± 0.4 mM
- HCO3a, arterial actual bicarbonate concentration (Beagle dogs [1]; hypoxia 3rd h): 17.7 ± 0.4 mM
- PaCO2, arterial carbon dioxide tension (Beagle dogs [1]; hypoxia 3rd h): 29 ± 1 Torr
- PaO2, arterial oxygen tension (Beagle dogs [1]; hypoxia 3rd h): 38 ± 1 Torr
- VE, minute ventilation (Beagle dogs [1]; hypoxia 3rd h): 5.1 ± 0.6 L/min
- pHa, arterial pH (Beagle dogs [1]; hypoxia 3rd h): 7.42 ± 0.01
- BEa, arterial base excess (Beagle dogs [1]; normoxia 1st h): -4.4 ± 0.4 mM
- HCO3a, arterial actual bicarbonate concentration (Beagle dogs [1]; normoxia 1st h): 20.1 ± 0.3 mM
- PaCO2, arterial carbon dioxide tension (Beagle dogs [1]; normoxia 1st h): 37 ± 1^ Torr
- PaO2, arterial oxygen tension (Beagle dogs [1]; normoxia 1st h): 96 ± 1^ Torr
- VE, minute ventilation (Beagle dogs [1]; normoxia 1st h): 3.0 ± 0.2 L/min
- pHa, arterial pH (Beagle dogs [1]; normoxia 1st h): 7.35 ± 0.01
- MPAP and PVR during hypoxia (words) (Beagle dogs [2]; listed as Benzolamide): did not inhibit
- MPAP and PVR during hypoxia (words) (Beagle dogs [2]; listed as benzolamide): increased
- CO, cardiac output (Beagle dogs [2]; [3]): 2.6 ± 0.2 L/min
- CVP, central venous pressure (Beagle dogs [2]; [3]): 1.5 ± 0.2 cmH2O
- HR, heart rate (Beagle dogs [2]; [3]): 94 ± 10 beats/min
- MAP, mean arterial pressure (Beagle dogs [2]; [3]): 109 ± 6 mmHg
- MPAP, mean pulmonary arterial pressure (Beagle dogs [2]; [3]): 18 ± 1 mmHg
- PCWP, pulmonary capillary wedge pressure (Beagle dogs [2]; [3]): 3.2 ± 0.4 cm H2O
- SVR, systemic vascular resistance (Beagle dogs [2]; [3]): 3272 ± 113 dyn · s^1 · cm^−5
- CO, cardiac output (Beagle dogs [2]; [4]): 2.7 ± 0.2 L/min
- CVP, central venous pressure (Beagle dogs [2]; [4]): 1.2 ± 0.2 cmH2O
- HR, heart rate (Beagle dogs [2]; [4]): 90 ± 8 beats/min
- MAP, mean arterial pressure (Beagle dogs [2]; [4]): 109 ± 9 mmHg
- MPAP, mean pulmonary arterial pressure (Beagle dogs [2]; [4]): 19 ± 1 mmHg
- PCWP, pulmonary capillary wedge pressure (Beagle dogs [2]; [4]): 3.8 ± 0.3 cm H2O
- SVR, systemic vascular resistance (Beagle dogs [2]; [4]): 3227 ± 83 dyn · s^1 · cm^−5
- CO, cardiac output (Beagle dogs [2]; [5]): 2.7 ± 0.2 L/min
- CVP, central venous pressure (Beagle dogs [2]; [5]): 1.8 ± 0.3 cmH2O
- HR, heart rate (Beagle dogs [2]; [5]): 73 ± 6 beats/min
- MAP, mean arterial pressure (Beagle dogs [2]; [5]): 102 ± 5 mmHg
- MPAP, mean pulmonary arterial pressure (Beagle dogs [2]; [5]): 12 ± 1 mmHg
- PCWP, pulmonary capillary wedge pressure (Beagle dogs [2]; [5]): 3.2 ± 0.2 cm H2O
- SVR, systemic vascular resistance (Beagle dogs [2]; [5]): 3101 ± 376 dyn · s^1 · cm^−5

Compound: CCOc1ccc2nc(S(N)(=O)=O)sc2c1 [EZ, ethoxzolamide]
- BEa, arterial base excess (Beagle dogs [1]; hypoxia 2nd h): -6.2 ± 1.2 mM
- HCO3a, arterial actual bicarbonate concentration (Beagle dogs [1]; hypoxia 2nd h): 18.1 ± 1.3 mM
- PaCO2, arterial carbon dioxide tension (Beagle dogs [1]; hypoxia 2nd h): 26 ± 1 Torr
- PaO2, arterial oxygen tension (Beagle dogs [1]; hypoxia 2nd h): 36 ± 1 Torr
- VE, minute ventilation (Beagle dogs [1]; hypoxia 2nd h): 6.4 ± 0.7 L/min
- pHa, arterial pH (Beagle dogs [1]; hypoxia 2nd h): 7.41 ± 0.01
- BEa, arterial base excess (Beagle dogs [1]; hypoxia 3rd h): -6.7 ± 1.1 mM
- HCO3a, arterial actual bicarbonate concentration (Beagle dogs [1]; hypoxia 3rd h): 17.6 ± 1.3 mM
- PaCO2, arterial carbon dioxide tension (Beagle dogs [1]; hypoxia 3rd h): 24 ± 1 Torr
- PaO2, arterial oxygen tension (Beagle dogs [1]; hypoxia 3rd h): 38 ± 1 Torr
- VE, minute ventilation (Beagle dogs [1]; hypoxia 3rd h): 6.9 ± 0.9 L/min
- pHa, arterial pH (Beagle dogs [1]; hypoxia 3rd h): 7.42 ± 0.01
- BEa, arterial base excess (Beagle dogs [1]; normoxia 1st h): -5.3 ± 0.5 mM
- HCO3a, arterial actual bicarbonate concentration (Beagle dogs [1]; normoxia 1st h): 19.6 ± 0.6 mM
- PaCO2, arterial carbon dioxide tension (Beagle dogs [1]; normoxia 1st h): 33 ± 1 Torr
- PaO2, arterial oxygen tension (Beagle dogs [1]; normoxia 1st h): 105 ± 1 Torr
- VE, minute ventilation (Beagle dogs [1]; normoxia 1st h): 4.0 ± 0.2 L/min
- pHa, arterial pH (Beagle dogs [1]; normoxia 1st h): 7.37 ± 0.01
- MPAP and PVR during hypoxia (words) (Beagle dogs [2]): increased; also recorded: did not prevent
- CO, cardiac output (Beagle dogs [2]; [3]): 2.9 ± 0.2 L/min
- CVP, central venous pressure (Beagle dogs [2]; [3]): 2.5 ± 0.2 cmH2O
- HR, heart rate (Beagle dogs [2]; [3]): 104 ± 6 beats/min
- MAP, mean arterial pressure (Beagle dogs [2]; [3]): 104 ± 7 mmHg
- MPAP, mean pulmonary arterial pressure (Beagle dogs [2]; [3]): 17 ± 1 mmHg
- PCWP, pulmonary capillary wedge pressure (Beagle dogs [2]; [3]): 4.0 ± 0.5 cm H2O
- SVR, systemic vascular resistance (Beagle dogs [2]; [3]): 2745 ± 154 dyn · s^1 · cm^−5
- CO, cardiac output (Beagle dogs [2]; [4]): 2.9 ± 0.3 L/min
- CVP, central venous pressure (Beagle dogs [2]; [4]): 2.5 ± 0.2 cmH2O
- HR, heart rate (Beagle dogs [2]; [4]): 106 ± 4 beats/min
- MAP, mean arterial pressure (Beagle dogs [2]; [4]): 101 ± 1 mmHg
- MPAP, mean pulmonary arterial pressure (Beagle dogs [2]; [4]): 16 ± 1 mmHg
- PCWP, pulmonary capillary wedge pressure (Beagle dogs [2]; [4]): 3.5 ± 0.3 cm H2O
- SVR, systemic vascular resistance (Beagle dogs [2]; [4]): 3270 ± 380 dyn · s^1 · cm^−5
- CO, cardiac output (Beagle dogs [2]; [5]): 2.8 ± 0.2 L/min
- CVP, central venous pressure (Beagle dogs [2]; [5]): 2.3 ± 0.2 cmH2O
- HR, heart rate (Beagle dogs [2]; [5]): 77 ± 4 beats/min
- MAP, mean arterial pressure (Beagle dogs [2]; [5]): 96 ± 2 mmHg
- MPAP, mean pulmonary arterial pressure (Beagle dogs [2]; [5]): 11 ± 1 mmHg
- PCWP, pulmonary capillary wedge pressure (Beagle dogs [2]; [5]): 3.8 ± 0.2 cm H2O
- PVR, pulmonary vascular resistance (Beagle dogs [2]; [5]): 221 ± 21 dyn · s^−1 · cm^−5
- SVR, systemic vascular resistance (Beagle dogs [2]; [5]): 2784 ± 200 dyn · s^1 · cm^−5
